# Measurements from the RepoRT retention time repository.
# Assay: Waters SunFire C18, 150 × 2.1 mm, 3.5 µm, 25 °C, 0.25 mL/min, estimated dead time 1.3 min; A: water + 0.1% formic acid; B: methanol; gradient (min/%B) 0/5 30/100
# Conditions: stereoisomer not certain
row,SMILES,LC retention time
1,CCC12CCCN3C(=O)C=C(c4ccccc4NC(=O)CC1)C32O (centres undefined),18.1 min
2,CCC1CN2CCC34C5=C(CC6(CC7CC(CC)N8CCC9(C6=Nc6ccccc69)C78)CN5c5ccccc53)C1CC24 (centres undefined),16.3 min
3,CC=C1CN2C3CC1C(CO)(C(=O)OC)C2Cc1c3n(C)c2ccccc12 (centres undefined),14.2 min
4,COC(=O)C1C(O)CCC2CN3CCc4c([nH]c5cc(OC)ccc45)C3CC21 (centres undefined),14.1 min
5,COC(=O)C1C2CC3c4[nH]c5cc(OC)ccc5c4CCN3CC2CC(O)C1OC (centres undefined),16.1 min
6,CC=C1CN2C3CC1C1(C(=O)OC)C2CC2(c4cc(O)ccc4N(C)C32)C1OC(=O)c1cc(OC)c(OC)c(OC)c1 (centres undefined),15.8 min
7,COc1cc2c(cc1OC)C13CCN(C)CC4=CCOC5CC(=O)N2C1C5C4CC3=O (centres undefined),13.1 min
8,CC=C1CN2CCC34c5cc(O)ccc5N(C)C35OCC4(C(=O)OC)C1CC25 (centres undefined),14.3 min
9,CC=C1C[N+]2(C)CCc3c([nH]c4ccccc34)C2CC1Cc1nccc2c1[nH]c1ccccc12 (centres undefined),15.5 min
10,COC(=O)C1CC23C=CC(=O)N2CCC2(C(=O)OC)c4ccccc4N(C(=O)OC)C12CC3 (centres undefined),25.1 min
11,CCC1CN2CCc3c([nH]c4cc(OC)c(OC)cc34)C2CC1CCO (centres undefined),16.6 min
12,COC(=O)C1CC23CCCN4CCC5(c6ccccc6N(C(=O)OC)C15CC2)C43 (centres undefined),26.9 min
13,Cc1[nH]ccc2c(C)c3nc4ccccc4c3cc12,21.5 min
14,CC=C1CN2C3CC1C(CO)(C(=O)OC)C2Cc1c3[nH]c2ccccc12 (centres undefined),12.9 min
15,O=c1c2cncc3c2c(c2n1CCc1c-2[nH]c2ccccc12)C=C3,22.1 min
16,CC=C1CN(C)C2Cc3c([nH]c4ccccc34)C(c3ccc4c5c([nH]c4c3)C3CC4CC(CC)C3N(CC5)C4)CC1C2C(=O)OC (centres undefined),15.3 min
17,CCC1(O)CC2CN(CCc3c([nH]c4ccccc34)C(C(=O)OC)(c3cc4c(cc3OC)N(C)C3C(O)(C(=O)OC)C(OC(C)=O)C5(CC)C=CCN6CCC43C65)C2)C1 (centres undefined),18.6 min
18,CC=C1C[n+]2ccc3c([nH]c4ccccc43)c2CC1CCO (centres undefined),16.7 min
19,O=C1CC2OCC=C3CN4CCC56c7ccccc7N1C5C2C3CC46 (centres undefined),11 min
20,CCC12C=CCN3CCc4c(n(c5ccccc45)C(O)(C(=O)OC)C1)C32 (centres undefined),13 min
21,CC=C1CN2CCC3(O)c4ccccc4N4C=C(C(=O)OC)C1CC2C43O (centres undefined),16.5 min

row,SMILES,LC retention time
1,CCC1CN(C)CC2(C(=O)OC)Cc3c([nH]c4ccccc34)C(=O)CC12 (centres undefined),15 min
2,CC=C1CN(C)CCC23C(=O)CC1C1COC(OC)C(=O)N(c4ccccc42)C13 (centres undefined),16 min
3,CCC1CC2CN3CCc4c([nH]c5ccccc45)C(C(=O)OC)(C2)C13 (centres undefined),16.9 min
4,C=CC1CN2CCc3c([nH]c4ccccc34)C2CC1CC1c2[nH]c3ccccc3c2CCN1C (centres undefined),14.8 min
5,C=CC1CN2CCc3c([nH]c4ccccc34)C2CC1C(=COC)C(=O)OC (centres undefined),16.7 min
6,CC=C1CN(C)C2Cc3c([nH]c4ccccc34)C(c3cc4[nH]c5c(c4cc3OC)CCN3CC4CC(CC)C3C5(C(=O)OC)C4)CC1C2C(=O)OC (centres undefined),17.5 min
7,CC=C1CN2C3CC1C1(C(=O)OC)C2CC2(c4ccccc4NC32)C1O (centres undefined),14.9 min
8,CC=C1C[N+]2(C)CCC34c5ccccc5NC32C(O)CC1C4(CO)C(=O)OC (centres undefined),13.4 min
9,CCC1CN2CCc3c([nH]c4ccccc34)C2CC1CC1NCCc2c1[nH]c1ccccc21 (centres undefined),16.6 min
10,CCC1=C(CC(=O)OC)C(O)(c2nccc3c2[nH]c2ccccc23)OC1=O (centres undefined),23.2 min
11,C=Cc1cncc2c(=O)n3c(cc12)-c1[nH]c2ccccc2c1CC3,18.3 min
12,C=CC1CN2CCc3c([nH]c4ccccc34)C2CC1CCO (centres undefined),13.7 min
13,CCC1CN2CCc3c([nH]c4ccccc34)C2CC1CC1c2[nH]c3ccccc3c2CCN1C (centres undefined),14.7 min
14,O=C1CC(O)C2C3CC4N(CCC45c4ccccc4N1C25)CC3=CCO (centres undefined),10.1 min
15,C=CC1CN2CCC1CC2C(O)c1ccnc2ccc(OC)cc12 (centres undefined),13.7 min
16,COc1ccc2[nH]c3c(c2c1)CCN1CC2CC3C1C(C(C)O)C2 (centres undefined),14.9 min
17,COC(=O)C1(COC(=O)C=Cc2ccccc2)C2CC(N(C)CC23OC3C)C23Nc4ccccc4C21CC(=O)O3 (centres undefined),29.9 min
18,CCC12CC34CC(C(=O)OC)=C5Nc6ccccc6C56CCN3C1C1CC3(CC)C5OC5CN5CCC7(c8ccccc8N(C64)C17O2)C53 (centres undefined),25.8 min
19,COC(=O)N1c2ccccc2C23CCN4C(=O)C=CC45CCC12C(C5)C(=O)O3 (centres undefined),24.1 min
20,CC1OC=C2C(=O)N3CCc4c([nH]c5ccccc45)C3CC2C1C=O (centres undefined),27.3 min
21,COc1cc2c(cc1OC)C13CCN(C)CC45OC4COC4CC(=O)N2C1C4C5CC3=O (centres undefined),10.1 min

row,SMILES,LC retention time
1,CC=C1C[n+]2ccc3c([nH]c4ccccc43)c2CC1C1=CN2c3ccccc3C34CCN5CC(=CC)C(CC53)C(C1O)C24 (centres undefined),15.2 min
2,CCC1C2CCN3CCC4(C(=C2C(=O)OC)Nc2ccccc24)C13 (centres undefined),13.7 min
3,CCC12C=CCN3CCC4(C(=C(C(=O)OC)C1)Nc1cc(O)c(C5C=CC6(CC)CC(C(=O)OC)=C7Nc8c(O)cccc8C78CCN5C68)cc14)C32 (centres undefined),16.7 min
4,CC=C(C=O)C1CC2c3c(c4ccccc4n3C(O)C1)CCN2C (centres undefined),16.1 min
5,CCC1CN2CCc3c([nH]c4ccccc34)C2CC1CC=O (centres undefined),14.4 min
6,C=CC(CO)C1CC[N+]2(C)CCc3c([nH]c4ccccc34)C2C1 (centres undefined),14.2 min
7,c1ccc2c(c1)NC13CCC4(CCCN5CCC21C54)CC3 (centres undefined),19.5 min
8,COC(=O)C1=COC(C)C2CN3CCC4(C(=O)Nc5cc(OC)c(OC)cc54)C3CC12 (centres undefined),15.8 min
9,CCC12CCCN(CCc3c([nH]c4ccccc34)CC1)C2 (centres undefined),15.1 min
10,CC=C1CN(C)C2Cc3c(n(C)c4ccccc34)C(=O)CC1C2C(=O)OC (centres undefined),16.3 min
11,CC=C1CN2C3CC1C1(C(=O)OC)C2CC2(c4ccccc4N(C)C32)C1O (centres undefined),12 min
12,CC=C1CN2CCC34c5ccccc5N5C(=O)C(C6CC78c9ccccc9N9C(=O)C=CC(C%10CC7N6CC%10=CC)C98)=CC(C1CC23)C54 (centres undefined),15.3 min
13,C=C1c2[nH]c3ccccc3c2CN2CCC1C(=CC)C2 (centres undefined),9.26 min
14,CC=C1CN2C3CC1C(C=O)C2Cc1c3[nH]c2ccccc12 (centres undefined),14.7 min
15,CC=C1CN2C(C3C(=O)N4c5ccccc5C56CCN7CC8=CCOC3C(C8CC75)C46)CC34c5ccccc5N5C(=O)CC=C(C1CC23)C54 (centres undefined),15.6 min
16,CCC1CC2CC3c4[nH]c5ccc(OC)cc5c4CCN(C2)C13 (centres undefined),13.6 min
17,CC1OCC2C3CC4(O)N(CCC45c4ccccc4N(C(=O)CO)C25)CC13 (centres undefined),11.8 min
18,CC=C1CN2CCc3c([nH]c4ccccc34)C2CC1C(C=O)C(=O)OC (centres undefined),18.3 min
19,CC=C1CN2C3CC45c6ccccc6N(C)C4C2CC1C3C5OC(=O)c1cc(OC)c(OC)c(OC)c1 (centres undefined),22.6 min
20,COC(=O)C1=C2Nc3ccccc3C23CCN2CC4(CC5CC67CCOC6CCN6CCC8(c9cccc(OC)c9N(C4)C58O)C67)C4OCCC4(C1)C23 (centres undefined),23.3 min
21,CC=C1CN2CCc3c([nH]c4ccccc34)C2CC1Cc1nccc2c1[nH]c1ccc(O)cc12 (centres undefined),16.6 min

row,SMILES,LC retention time
1,C=CC12CN(C)C3C4COC(CC41)C1(C(=O)Nc4ccccc41)C32 (centres undefined),9.75 min
2,CC=C1CN2C(C3=CC4C5CC6N(CCC67c6ccccc6N(C3=O)C47)CC5=CCO)CC34c5ccccc5N5C(=O)CC=C(C1CC23)C54 (centres undefined),15.3 min
3,CC=C1CN2C3CC1C(C1OCC4C5CC6N(CCC67c6ccccc6N1C47)CC5CC)C2Cc1c3[nH]c2ccccc12 (centres undefined),13.8 min
4,CC=C1C[N+]2(C)C3CC1C(C(=O)[O-])C2Cc1c3[nH]c2ccccc12 (centres undefined),15.6 min
5,CC=C1CN(C)C2Cc3c([nH]c4ccccc34)C(=O)CC1C2C(=O)OC (centres undefined),15.3 min
6,COC(=O)C1C2CC3c4[nH]c5cc(OC)ccc5c4CCN3CC2CC(OC(=O)c2cc(OC)c(OC)c(OC)c2)C1OC (centres undefined),21.9 min
7,CC=C1CN2C3CC1C1(C(=O)OC)C2CC2(c4ccccc4N(C)C32)C1OC(=O)C=Cc1cc(OC)c(OC)c(OC)c1 (centres undefined),17.8 min
8,CC=C1CN(C)CC2(C(=O)OC)Cc3c([nH]c4ccccc34)C(=O)CC12 (centres undefined),14.3 min
9,CCC1CC2CN3CCc4c([nH]c5ccc(OC)cc45)C(C(=O)OC)(C2)C13 (centres undefined),16.8 min
10,CCC12C=CCN3CCC4(C(=C(C(=O)OC)C1)Nc1ccccc14)C32 (centres undefined),18.2 min
11,CCC1NC2CC3(C(=O)N(OC)c4cc(OC)ccc43)C3CC1C2CO3 (centres undefined),16.3 min
12,CCC12CCCN3CCc4c(n(c5ccccc45)C(c4ccc5c(c4)C46CCN7CCCC8(CCC4(C(C(=O)OC)C8)N5C)C76)C1)C32 (centres undefined),18.7 min
13,CC=C1CN2CCC34CC5C6CC7c8c(c9ccccc9n8C)CC(C6COC5(C)OC35C2CC1C(C(=O)OC)N5c1ccccc14)N7C (centres undefined),17.4 min
14,CC=C1CN(C)C2Cc3c([nH]c4ccccc34)C(c3ccc4c(CCN)c[nH]c4c3)CC1C2C(=O)OC (centres undefined),12.6 min
15,COC(=O)C1CC23CCC[N+]4([O-])CCC5(c6ccccc6N(C(=O)OC)C15CC2)C34 (centres undefined),17.2 min
16,CC=C1CN2C(C3C(=O)N4c5ccccc5C56CCN7CC8=CCOC3C(C8CC75)C46)CC34c5ccccc5N5C(=O)C=CC(C1CC23)C54 (centres undefined),16.3 min
17,COC(=O)N1c2ccc(OC)cc2C23CCN4C(=O)C=CC45CCC12C3C5 (centres undefined),28.1 min
18,CCC1CC2CN3CCc4c([nH]c5cc(OC)c(OC)cc45)C(C(=O)OC)(C2)C13 (centres undefined),16.3 min
19,C=CC1CN2CCC3(C(=O)Nc4cc(O)ccc43)C2CC1CC1c2[nH]c3ccccc3c2CCN1C (centres undefined),11.9 min
20,COC(=O)C1CC23C=CCN4CCC5(c6ccccc6NC15C2C)C43 (centres undefined),13.5 min
21,COC(=O)C1=COC(C)C2CN3CCc4c([nH]c5cc(OC)c(OC)cc45)C3CC12 (centres undefined),17 min
